From patent publication US9957271B2, “Substituted bicyclic aza-heterocycles and analogues as sirtuin modulators” (GlaxoSmithKline, LLC, priority 2012, dated 2018)

Assays:
SIRT1 [1] = molecular target: T1, SIRT1 (Homo sapiens, UniProt Q96EB6); experiment: Trp mass spectrometry assay of SIRT1 activity; format: biochemical; details: for Emax: read-out: Trp % Fold Act
T1 sequence (Q96EB6 1-747): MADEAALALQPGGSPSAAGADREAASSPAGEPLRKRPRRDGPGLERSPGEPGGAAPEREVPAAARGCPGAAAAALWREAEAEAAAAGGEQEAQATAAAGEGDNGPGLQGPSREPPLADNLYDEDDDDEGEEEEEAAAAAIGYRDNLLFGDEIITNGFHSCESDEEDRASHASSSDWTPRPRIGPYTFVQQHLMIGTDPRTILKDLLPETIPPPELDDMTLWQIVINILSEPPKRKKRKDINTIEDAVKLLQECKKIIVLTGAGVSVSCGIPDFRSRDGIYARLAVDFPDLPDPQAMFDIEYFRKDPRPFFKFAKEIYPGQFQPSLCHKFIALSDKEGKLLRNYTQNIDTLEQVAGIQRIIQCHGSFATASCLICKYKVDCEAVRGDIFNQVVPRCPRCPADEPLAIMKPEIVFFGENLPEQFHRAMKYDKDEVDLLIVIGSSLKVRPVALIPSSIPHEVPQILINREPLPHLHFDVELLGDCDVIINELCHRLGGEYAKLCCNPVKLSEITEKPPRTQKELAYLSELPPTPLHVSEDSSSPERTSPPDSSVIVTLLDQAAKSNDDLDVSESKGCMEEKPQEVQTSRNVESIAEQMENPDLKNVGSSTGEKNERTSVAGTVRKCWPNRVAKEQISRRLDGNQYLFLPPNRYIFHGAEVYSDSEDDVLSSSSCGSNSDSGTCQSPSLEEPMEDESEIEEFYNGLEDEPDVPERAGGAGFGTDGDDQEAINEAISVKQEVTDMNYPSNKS
Procedure, shortened: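 His-tagged SIRT1 expressed in E. coli BL21(DE3), 10 nM, incubated 25 min at 25° C. with 0.5 μM Ac-RHKK(Ac)W-NH2 peptide and 120 μM βNAD+ in 50 mM HEPES pH 7.5, […], 1 mM DTT, 0.05% BSA; formic acid stop. OAADPR or deacetylated peptide measured by mass spectrometry; EC1.5 and percent maximum activation versus DMSO control.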

SIRT1 [2] = molecular target: T1, SIRT1; experiment: TAMRA based mass spectrometry assay of SIRT1 activity; format: biochemical; details: for Emax: read-out: TAMRA % Fold Act
Procedure, shortened: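 Recombinant N-terminal His-tagged human SIRT1 (10 nM, E. coli) incubated 25 min at 25 °C with 0.5 μM 5TMR-labelled p53-derived acetyl-peptide and 120 μM βNAD+ in Tris-acetate pH 8 buffer with DTT and 0.05% BSA, compound at varying concentrations. Stopped with formic acid; deacetylated peptide or OAADPR measured by mass spectrometry relative to DMSO controls.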

[3] = concentration of test compound giving 150% activation of SIRT1, Trp peptide substrate
[4] = percent maximum fold activation of SIRT1, Trp peptide substrate
[5] = concentration of test compound giving 150% activation of SIRT1, TAMRA peptide substrate
[6] = percent maximum fold activation of SIRT1, TAMRA peptide substrate
[7] = Trp assay, concentration giving 150% activation of SIRT1
[8] = Trp assay, percent maximum fold activation
[9] = TAMRA assay, concentration giving 150% activation of SIRT1
[10] = TAMRA assay, percent maximum fold activation

Row | SMILES | Trp EC1.5 (μM) (SIRT1 [1]; [3]) | Emax (SIRT1 [1]; [4]) [%] | TAMRA EC1.5 (μM) (SIRT1 [2]; [5]) | Emax (SIRT1 [2]; [6]) [%] | Trp EC1.5 (μM) (SIRT1 [1]; [7]) | Emax (SIRT1 [1]; [8]) [%] | TAMRA EC1.5 (μM) (SIRT1 [2]; [9]) | Emax (SIRT1 [2]; [10]) [%]
1 | O=C(Nc1ccncc1)c1cnc2ccc(-c3ccc(F)c(F)c3F)nn12 [Compound 128] | C (EC1.5>25 μM) | < 350 | C (EC1.5>25 μM) | < 350 | – | – | – | –
2 | O=C(Nc1cccnc1)c1cnc2ccc(-c3ccc(F)c(F)c3F)nn12 [Compound 131] | C (EC1.5>25 μM) | < 350 | C (EC1.5>25 μM) | < 350 | – | – | – | –
3 | O=C(Nc1cccc(N2CCOCC2)n1)c1cnc2ccc(-c3ccccc3F)nn12 [Compound 133] | A (EC1.5<1 μM) | < 350 | A (EC1.5<1 μM) | ≥ 350 | – | – | – | –
4 | O=C(Nc1cccc(CN2CCOCC2)n1)c1cnc2ccc(-c3cccc(Cl)c3F)nn12 [Compound 140] | B (EC1.5 1-25 μM) | < 350 | A (EC1.5<1 μM) | ≥ 350 | – | – | – | –
5 | O=C(Nc1ccncc1)c1cnc2ccc(-c3cccc(Cl)c3F)nn12 [Compound 141] | C (EC1.5>25 μM) | < 350 | C (EC1.5>25 μM) | < 350 | – | – | – | –
6 | O=C(Nc1cccnc1)c1cnc2ccc(-c3cccc(Cl)c3F)nn12 [Compound 143] | A (EC1.5<1 μM) | < 350 | C (EC1.5>25 μM) | < 350 | – | – | – | –
7 | O=C(Nc1ccnc(N2CCC2)c1)c1cnc2ccc(-c3cccc(Cl)c3F)nn12 [Compound 159] | B (EC1.5 1-25 μM) | < 350 | A (EC1.5<1 μM) | < 350 | – | – | – | –
8 | O=C(Nc1ccncc1)c1cnc2ccc(-c3c(F)cccc3Cl)nn12 [Compound 161] | C (EC1.5>25 μM) | < 350 | B (EC1.5 1-25 μM) | < 350 | – | – | – | –
9 | O=C(Nc1cccc(N2CCOCC2)n1)c1cnc2ccc(-c3c(F)cccc3Cl)nn12 [Compound 164] | B (EC1.5 1-25 μM) | < 350 | A (EC1.5<1 μM) | ≥ 350 | – | – | – | –
10 | O=C(Nc1ccccn1)c1cnc2ccc(-c3c(F)cccc3F)nn12 [Compound 167] | C (EC1.5>25 μM) | < 350 | C (EC1.5>25 μM) | < 350 | – | – | – | –
11 | O=C(Nc1ccnc(N2CCC2)c1)c1cnc2ccc(-c3c(F)cccc3F)nn12 [Compound 170] | B (EC1.5 1-25 μM) | < 350 | A (EC1.5<1 μM) | < 350 | – | – | – | –
12 | O=C(Nc1cccc(CN2CCOCC2)n1)c1cnc2ccc(-c3c(F)cccc3F)nn12 [Compound 172] | C (EC1.5>25 μM) | < 350 | B (EC1.5 1-25 μM) | ≥ 350 | – | – | – | –
13 | CS(=O)(=O)c1ccccc1-c1ccc2ncc(C(=O)Nc3ccnc(N4CCC4)c3)n2n1 [Compound 186] | C (EC1.5>25 μM) | < 350 | B (EC1.5 1-25 μM) | < 350 | – | – | – | –
14 | CS(=O)(=O)c1ccccc1-c1ccc2ncc(C(=O)Nc3cccnc3)n2n1 [Compound 189] | C (EC1.5>25 μM) | < 350 | C (EC1.5>25 μM) | < 350 | – | – | – | –
15 | Cc1cc(-c2ccccc2C(F)(F)F)nn2c(C(=O)Nc3cccc(N4CCOCC4)n3)cnc12 [Compound 192] | A (EC1.5<1 μM) | ≥ 350 | A (EC1.5<1 μM) | ≥ 350 | – | – | – | –

The remaining lines, values ahead:

Row | Trp EC1.5 (μM) (SIRT1 [1]; [3]) | Emax (SIRT1 [1]; [4]) [%] | TAMRA EC1.5 (μM) (SIRT1 [2]; [5]) | Emax (SIRT1 [2]; [6]) [%] | Trp EC1.5 (μM) (SIRT1 [1]; [7]) | Emax (SIRT1 [1]; [8]) [%] | TAMRA EC1.5 (μM) (SIRT1 [2]; [9]) | Emax (SIRT1 [2]; [10]) [%] | SMILES
16 | C (EC1.5>25 μM) | < 350 | A (EC1.5<1 μM) | ≥ 350 | – | – | – | – | O=C(Nc1ccnc(N2CCC2)c1)c1cnc2ccc(-c3ccccc3F)nn12 [Compound 134]
17 | B (EC1.5 1-25 μM) | ≥ 350 | A (EC1.5<1 μM) | ≥ 350 | – | – | – | – | O=C(Nc1cnc2ccc(-c3ccccc3C(F)(F)F)nn12)c1cccnc1OCC(O)CO (stereo not shown) [Compound 146]
18 | B (EC1.5 1-25 μM) | < 350 | B (EC1.5 1-25 μM) | < 350 | – | – | – | – | O=C(Nc1ccc(CN2CCCC2)nc1)c1cnc2ccc(-c3ccccc3C(F)(F)F)nn12 [Compound 149]
19 | B (EC1.5 1-25 μM) | < 350 | B (EC1.5 1-25 μM) | < 350 | – | – | – | – | O=C(Nc1ncc(CN2CCOCC2)s1)c1cnc2ccc(-c3ccccc3C(F)(F)F)nn12 [Compound 150]
20 | A (EC1.5<1 μM) | ≥ 350 | A (EC1.5<1 μM) | ≥ 350 | – | – | – | – | Cc1csc(NC(=O)c2cnc3ccc(-c4ccccc4C(F)(F)F)nn23)n1 [Compound 152]
21 | C (EC1.5>25 μM) | < 350 | B (EC1.5 1-25 μM) | < 350 | – | – | – | – | CN(C)CCn1cc(NC(=O)c2cnc3ccc(-c4ccccc4C(F)(F)F)nn23)cn1 [Compound 155]
22 | B (EC1.5 1-25 μM) | ≥ 350 | A (EC1.5<1 μM) | ≥ 350 | – | – | – | – | COc1nccc(NC(=O)c2cnc3ccc(-c4ccccc4C(F)(F)F)nn23)n1 [Compound 173]
23 | B (EC1.5 1-25 μM) | ≥ 350 | A (EC1.5<1 μM) | ≥ 350 | – | – | – | – | COc1ccnc(NC(=O)c2cnc3ccc(-c4ccccc4C(F)(F)F)nn23)n1 [Compound 175]
24 | C (EC1.5>25 μM) | < 350 | C (EC1.5>25 μM) | < 350 | – | – | – | – | O=C(Nc1cnccc1N1CCOCC1)c1cnc2ccc(-c3ccccc3C(F)(F)F)nn12 [Compound 177]
25 | B (EC1.5 1-25 μM) | < 350 | B (EC1.5 1-25 μM) | < 350 | – | – | – | – | O=C(Nc1ccccn1)c1cnc2ccc(-c3cccc(F)c3Cl)nn12 [Compound 182]
26 | C (EC1.5>25 μM) | < 350 | B (EC1.5 1-25 μM) | < 350 | – | – | – | – | O=C(Nc1cccnc1)c1cnc2ccc(-c3cccc(F)c3Cl)nn12 [Compound 183]
27 | – | – | – | – | B (EC1.5 1-25 μM) | < 350 | A (EC1.5<1 μM) | ≥ 350 | COc1cc(NC(=O)c2cnc3ccc(-c4ccccc4C(F)(F)F)nn23)ncn1 [Compound 197]
28 | – | – | – | – | B (EC1.5 1-25 μM) | < 350 | A (EC1.5<1 μM) | ≥ 350 | COc1cc(OC)nc(NC(=O)c2cnc3ccc(-c4ccccc4C(F)(F)F)nn23)n1 [Compound 198]
29 | – | – | – | – | B (EC1.5 1-25 μM) | ≥ 350 | B (EC1.5 1-25 μM) | ≥ 350 | Cc1cc(-c2ccccc2C(F)(F)F)nn2c(C(=O)Nc3cccnc3)cnc12 [Compound 206]
30 | – | – | – | – | A (EC1.5<1 μM) | ≥ 350 | A (EC1.5<1 μM) | ≥ 350 | Cc1cc(-c2ccccc2C(F)(F)F)nn2c(C(=O)Nc3ccnc(N4CCC4)c3)cnc12 [Compound 207]
31 | – | – | – | – | B (EC1.5 1-25 μM) | ≥ 350 | B (EC1.5 1-25 μM) | ≥ 350 | Cc1cc2ncc(C(=O)Nc3cccnc3)n2nc1-c1ccccc1C(F)(F)F [Compound 210]
32 | – | – | – | – | A (EC1.5<1 μM) | ≥ 350 | A (EC1.5<1 μM) | ≥ 350 | O=C(Nc1cncc(OCC(O)CO)n1)c1cnc2ccc(-c3ccccc3C(F)(F)F)nn12 (stereo not shown) [Compound 213]
33 | – | – | – | – | C (EC1.5>25 μM) | < 350 | C (EC1.5>25 μM) | < 350 | O=C(Nc1cnc2ccc(-c3ccccc3C(F)(F)F)nn12)c1ccnc(CN2CCCC2)c1 [Compound 214]
34 | – | – | – | – | C (EC1.5>25 μM) | < 350 | C (EC1.5>25 μM) | < 350 | O=C(Nc1cccnc1N1CCOCC1)c1cnc2ccc(-c3ccccc3C(F)(F)F)nn12 [Compound 215]
